Data taken from patent US10016383B2, “Inhibitors of metallo-β-lactamase-enzymes” (McMaster University, priority 2013, dated 2018).

Experiments:
VIM-2 = target: T1, VIM-2 (Escherichia coli, UniProt Q5U7L7); assay: Inactivation kinetics; assay type: biochemical
T1 construct: All β-lactamase overexpression constructs were generated without the leader peptide in a pET-28b plasmid containing a N-terminal His Tag; His tag (N); made in house; host or cells: E. coli BL21(DE3)
Description: NDM-1 (50 nM) was added to 20 μM nitrocefin containing AM-A in serial ½ dilutions from 8 μM. The assay was performed in 50 mM HEPES pH 7.5, 200 μL final volume. The assay was read in 96-well microplate format at 490 nm using a Spectramax reader (Molecular Devices) for 10 minutes at 37° C. VIM-2 (10 nM) was added to 20 μM nitrocefin containing AM-A in serial ½ dilutions from 16 μM. The assay was performed in 50 mM HEPES pH 7.5, 200 μL final volume. The assay was read in 96-well microplate format at 490 nm using a Spectramax reader (Molecular Devices) for 10 minutes at 37° C. as reported previously. For all assays experiments the offset between reaction initiation and the first read was ˜6s.
Rate constants characterizing the inactivation of enzyme were calculated based on the dependence of the pseudo-first order rate constant, ki, upon AM-A concentration according to the following model:
[formula] where E•Zn, A, E•Zn•A, and Zn•A are the active metalloenzyme, AM-A, the ternary metalloenzyme-AM-A complex, and AM-A-metal complex, respectively. Ki represents the dissociation constant of the ternary complex and k+2 is the rate constant for dissociation of ternary complex into inactivated enzyme (Einact) and AM-A-Zn complex. […]
[formula] […] The individual values of Ki and k+2 were determined by fitting the value of ki to equation 2 as described previously^25: […]

K. pneumoniae N11-2218 = assay: Microdilution checkerboard / MIC; assay type: cell-based, Klebsiella pneumoniae; conditions: checkerboard MIC, NDM-1 expressing CRE
Description: FIC values were determined by standard methods^27 setting up checkerboards with 8 concentrations of each meropenem and AM-A in serial ½ dilutions. Experiments were done in duplicate and the mean used for calculation. The MIC for each compound was the lowest concentration of compound showing no growth. The FIC for each compound was calculated as the concentration of the compound in the presence of co-compound for a well showing no growth, divided by the MIC for that compound. The FIC index is the sum of the two FICs.

[1] = in vivo; cited from earlier work

N[C@H](CN[C@H](CN[C@@H](CC(=O)O)C(=O)O)C(=O)O)C(=O)O [AM-A, aspergillomarasmine A]
Ki (VIM-2): 7 nM | k+2 (inactivation rate constant) (VIM-2; time-dependent inactivation): 0.0065 s⁻¹ | synergy between meropenem and AM-A (K. pneumoniae N11-2218): synergy | effect on mean atrial blood pressure [1]: no effect
